The values that follow come from patent US20260193236A1 (Protego Biopharma, Inc., priority 2022, published 2026).

The subject of this assay is IRE1-XBP1s (XBP1-RLuc splicing reporter in HEK293 T-REx cells). As to the kind of experiment: IRE1-XBP1s activation assay (XBP1-RLuc splicing reporter, HEK293 T-REx cells, luminescence relative to thapsigargin). The class given is cell-based. Conditions: 18 h, compound 10 μM, HEK293 T-REx XBP1-RLuc reporter cells, relative to thapsigargin (Tg) 500 nM, read-out: Activity (IRE1-XBP1s activation, luminescence as % signal relative to thapsigargin, % Tg). The protocol:
IRE1-XBP1s activation Assay: HEK293 T-REx cells stably expressing the XBP1-RLuc splicing reporter were treated with an IRE1-XBP1s activator provided herein (10 μM) in the presence or absence of the IRE1 active site inhibitor 4μ8C (32 μM) for 18 h. Luminescence was shown as the percentage signal relative to thapsigargin (Tg) (500 nM, 18 h).

On to `C#CCCC1(CCC(=O)Nc2ncccc2OCCC(=O)Nc2cnn(CC(=O)N(C)CCOc3ccc(C)cc3)c2)N=N1` [Compound 296, 3-(3-but-3-ynyldiazirin-3-yl)-N-[3-[3-[[1-[2-[methyl-[2-(4-methylphenoxy)ethyl]amino]-2-oxo-ethyl]pyrazol-4-yl]amino]-3-oxo-propoxy]-2-pyridyl]propanamide], for which the activation at 10 µM is under 30%.
On to `Cc1ccc(OCC(C)N(C)C(=O)Cn2cc(NC(=O)CCOc3ccccc3F)cn2)cc1` (stereo not shown) [Compound 53], for which the activation at 10 µM is over 50%.
The result for `Cc1cc(F)ccc1OCCC(=O)Nc1cnn(CC(=O)N(C)CCOc2ccc(C(=O)O)cc2)c1` [Compound 88] reads under 30%.
The result for `Cc1ccc(OCCN(C)C(=O)Cn2cc(NC(=O)CCOc3cccnc3)cn2)cc1` [Compound 6, N-(1-(2-(methyl(2-(p-tolyloxy)ethyl)amino)-2-oxoethyl)-1H-pyrazol-4-yl)-3-(pyridin-3-yloxy)propanamide] reads over 50%.
